From PubChem BioAssay AID206 (DTP/NCI, 2004)
Several values for one entry are separate records, joined by “and”; a condition that tells them apart may be missing. Equal entries are not always repeated. Records with an inconclusive call do not appear.

System: nude mice, HT29 intrarenal xenograft, tumor weight T/C
Experiment: NCI In Vivo Anticancer Drug Screen. Data for tumor model HT29;CX-1 Human Adenocarcinoma (MER+) (intrarenal inoculation) in NU/NU Swiss (nude) mice
Settings: endpoint: mean tumor weight change, higher = larger tumour
Protocol: The antitumor activity of compounds was measured in mice bearing transplantable tumors. Survival or tumor size were measured and the results are expressed as the measurement made in the treated group (T) divided by the measurement made in the vehicle treated control group (C). The tumor model used in this assay is HT29;CX-1 Human Adenocarcinoma (MER+) (intrarenal inoculation) in NU/NU Swiss (nude) mice

[1] = dose: 300.0 mg/kg/injection, schedule: Q04DX004 (sc), vehicle: saline with Tween-80
[2] = dose: 1200.0 mg/kg/injection, schedule: Q04DX004 (sc), vehicle: saline with Tween-80
[3] = dose: 50.0 mg/kg/injection, schedule: Q04DX004 (sc), vehicle: saline with Tween-80
[4] = dose: 100.0 mg/kg/injection, schedule: Q04DX004 (sc), vehicle: saline with Tween-80
[5] = dose: 200.0 mg/kg/injection, schedule: Q04DX004 (sc), vehicle: saline with Tween-80
[6] = dose: 300.0 mg/kg/injection, schedule: Q04DX004 (sc), vehicle: Klucel (hydroxypropylcellulose) (HPC)
[7] = dose: 600.0 mg/kg/injection, schedule: Q04DX004 (sc), vehicle: Klucel (hydroxypropylcellulose) (HPC)
[8] = dose: 150.0 mg/kg/injection, schedule: Q04DX004 (sc), vehicle: Klucel (hydroxypropylcellulose) (HPC)
[9] = dose: 400.0 mg/kg/injection, schedule: Q04DX004 (sc), vehicle: saline with Tween-80
[10] = dose: 150.0 mg/kg/injection, schedule: Q04DX004 (sc), vehicle: saline
[11] = dose: 25.0 mg/kg/injection, schedule: Q01DX010 (sc), vehicle: saline
[12] = dose: 50.0 mg/kg/injection, schedule: Q01DX010 (sc), vehicle: saline

SMILES: CCCNC1=C(C)C(=O)C2=C(C1=O)[C@H](COC(N)=O)[C@]1(OC)[C@@H]3N[C@@H]3CN21
- T/C (dose: 6.0 mg/kg/injection, schedule: Q04DX003 (sc), vehicle: saline): 78 % of control
- T/C (dose: 12.0 mg/kg/injection, schedule: Q04DX003 (sc), vehicle: saline): 1 % of control

SMILES: NC(Cc1ccc(N(CCCl)CCCl)cc1)C(=O)O (stereo not given)
- T/C (dose: 5.0 mg/kg/injection, schedule: Q04DX004 (sc), vehicle: Klucel (hydroxypropylcellulose) (HPC)): 70 % of control
- T/C (dose: 10.0 mg/kg/injection, schedule: Q04DX004 (sc), vehicle: Klucel (hydroxypropylcellulose) (HPC)): 36 % of control and 53 % of control
- T/C (dose: 20.0 mg/kg/injection, schedule: Q04DX004 (sc), vehicle: Klucel (hydroxypropylcellulose) (HPC)): -16 % of control

SMILES: O=S1(=O)C=C(c2ccccc2)C(c2ccccc2)=C1
- T/C (dose: 150.0 mg/kg/injection, schedule: Q04DX004 (sc), vehicle: saline with Tween-80): 58 % of control
- T/C [1]: 83 % of control
- T/C (dose: 600.0 mg/kg/injection, schedule: Q04DX004 (sc), vehicle: saline with Tween-80): 97 % of control
- T/C [2]: 85 % of control

SMILES: CC[C@](C)(O)C(=O)O[C@H]1C(=O)O[C@@H]2C[C@H]3C(C)=CC(=O)[C@@H](O)[C@]3(C)[C@H]3[C@@]4(O)OC[C@]32[C@@H]1[C@@H](C)[C@H]4O
- T/C (dose: 0.25 mg/kg/injection, schedule: Q01DX010 (sc), vehicle: Klucel (hydroxypropylcellulose) (HPC)): 55 % of control
- T/C (dose: 0.5 mg/kg/injection, schedule: Q01DX010 (sc), vehicle: Klucel (hydroxypropylcellulose) (HPC)): 80 % of control
- T/C (dose: 1.0 mg/kg/injection, schedule: Q01DX010 (sc), vehicle: Klucel (hydroxypropylcellulose) (HPC)): 61 % of control
- T/C (dose: 2.0 mg/kg/injection, schedule: Q01DX010 (sc), vehicle: Klucel (hydroxypropylcellulose) (HPC)): 73 % of control

SMILES: CC(=O)N(C)c1ccc(Nc2cc(C)[nH]c3ccc4ncnc4c23)cc1
- T/C [3]: 95 % of control
- T/C [4]: 68 % of control
- T/C [5]: 79 % of control

SMILES: CCCCCCCCCCCCCCCCCCCCCC(=O)Nc1ccn(C2OC(CO)C(O)C2O)c(=O)n1 (stereo not given)
- T/C (dose: 225.0 mg/kg/injection, schedule: Q04DX004 (sc), vehicle: saline with Tween-80): 65 % of control
- T/C (dose: 450.0 mg/kg/injection, schedule: Q04DX004 (sc), vehicle: saline with Tween-80): 88 % of control
- T/C (dose: 900.0 mg/kg/injection, schedule: Q04DX004 (sc), vehicle: saline with Tween-80): 64 % of control
- T/C (dose: 1800.0 mg/kg/injection, schedule: Q04DX004 (sc), vehicle: saline with Tween-80): 72 % of control

SMILES: CSC(SC)=C1C(=O)NC(=O)NC1=O
- T/C (dose: 18.7 mg/kg/injection, schedule: Q04DX004 (sc), vehicle: suspension in saline): 66 % of control
- T/C (dose: 37.5 mg/kg/injection, schedule: Q04DX004 (sc), vehicle: suspension in saline): 77 % of control
- T/C (dose: 75.0 mg/kg/injection, schedule: Q04DX004 (sc), vehicle: suspension in saline): 49 % of control
- T/C (dose: 150.0 mg/kg/injection, schedule: Q04DX004 (sc), vehicle: suspension in saline): 56 % of control
- T/C (dose: 600.0 mg/kg/injection, schedule: Q04DX004 (sc), vehicle: suspension in saline): 97 % of control

SMILES: C[C@]12CC[C@@H]3c4ccc(O)cc4CC[C@H]3[C@@H]1CC[C@@H]2O
- T/C [6]: 54 % of control
- T/C [7]: 75 % of control

SMILES: O=S(=O)(O)O
- T/C (dose: 75.0 mg/kg/injection, schedule: Q04DX004 (sc), vehicle: Klucel (hydroxypropylcellulose) (HPC)): 86 % of control
- T/C [8]: 116 % of control
- T/C [6]: 65 % of control

SMILES: COc1cccc2c1C(=O)c1c(O)c3c(c(O)c1C2=O)C[C@@](O)(C(=O)COC(=O)c1cccnc1)C[C@@H]3OC1CC(N)C(O)C(C)O1 (stereo not given in full)
- T/C (dose: 6.0 mg/kg/injection, schedule: Q04DX004 (sc), vehicle: saline): 44 % of control and 65 % of control

SMILES: O=C(Nc1cccc2c(OC(=O)C(Cl)Cl)c(N=Nc3ccc(S(=O)(=O)Nc4nccs4)cc3)cc(N=Nc3ccc(S(=O)(=O)Nc4nccs4)cc3)c12)C(Cl)Cl (tested in a mixture with another compound)
- T/C [3]: 78 % of control
- T/C [4]: 94 % of control
- T/C [5]: 58 % of control
- T/C [9]: 56 % of control

SMILES: CCN(CC)CCOC(=O)Cc1cccc2c(=O)cc(-c3ccccc3)oc12
- T/C [3]: 70 % of control
- T/C [4]: 104 % of control
- T/C [5]: 102 % of control

SMILES: CC(CN1CC(=O)NC(=O)C1)N1CC(=O)NC(=O)C1 (stereo not given)
- T/C [8]: 85 % of control
- T/C [6]: 40 % of control
- T/C [7]: 46 % of control

SMILES: O=C1SC(c2ccccc2)=S=C1c1ccccc1
- T/C [1]: 102 % of control
- T/C [2]: 90 % of control

SMILES: NC(=O)Oc1cccc(OC(N)=O)c1
- T/C (dose: 50.0 mg/kg/injection, schedule: Q04DX004 (sc), vehicle: suspension in saline): 110 % of control
- T/C (dose: 100.0 mg/kg/injection, schedule: Q04DX004 (sc), vehicle: suspension in saline): 102 % of control
- T/C (dose: 200.0 mg/kg/injection, schedule: Q04DX004 (sc), vehicle: suspension in saline): 29 % of control
- T/C (dose: 400.0 mg/kg/injection, schedule: Q04DX004 (sc), vehicle: suspension in saline): 62 % of control

SMILES: COC12C(COC(N)=O)C3=C(C(=O)C(C)=C(N)C3=O)N1CC1C2N1C (stereo not given)
- T/C (dose: 2.0 mg/kg/injection, schedule: Q01DX010 (sc), vehicle: saline): 114 % of control
- T/C (dose: 4.0 mg/kg/injection, schedule: Q01DX010 (sc), vehicle: saline): 8 % of control and 12 % of control

SMILES: O=C(O)CCCCCCCC(=O)O
- T/C (dose: 600.0 mg/kg/injection, schedule: Q04DX004 (sc), vehicle: distilled water + Tween-80): 67 % of control
- T/C (dose: 2400.0 mg/kg/injection, schedule: Q04DX004 (sc), vehicle: distilled water + Tween-80): 113 % of control

SMILES: NCC1CCC(C(=O)O)CC1 (stereo not given)
- T/C [9]: 119 % of control
- T/C (dose: 800.0 mg/kg/injection, schedule: Q04DX004 (sc), vehicle: saline with Tween-80): 93 % of control
- T/C (dose: 1600.0 mg/kg/injection, schedule: Q04DX004 (sc), vehicle: saline with Tween-80): 112 % of control

SMILES: C[Si](C)(C)O/C=C1\CCCCC1=O
- T/C [3]: 163 % of control
- T/C [4]: 92 % of control
- T/C [5]: 123 % of control
- T/C [9]: 65 % of control

SMILES: CCC(C(=O)O)C(=O)O.[NH2-].[NH2-].[Pt+2]
- T/C (dose: 75.0 mg/kg/injection, schedule: Q04DX004 (sc), vehicle: saline): 92 % of control
- T/C [10]: 50 % of control

SMILES: CCCCC(=O)OCC(=O)[C@]1(O)Cc2c(O)c3c(c(O)c2[C@@H](OC2CC(NC(=O)C(F)(F)F)C(O)C(C)O2)C1)C(=O)c1c(OC)cccc1C3=O (stereo not given in full)
- T/C (dose: 64.0 mg/kg/injection, schedule: Q01DX010 (sc), vehicle: distilled water + Tween-80): 61 % of control
- T/C (dose: 128.0 mg/kg/injection, schedule: Q01DX010 (sc), vehicle: distilled water + Tween-80): 83 % of control
- T/C (dose: 256.0 mg/kg/injection, schedule: Q01DX010 (sc), vehicle: distilled water + Tween-80): 46 % of control

SMILES: C(COCCOCC1CO1)OCCOCC1CO1 (stereo not given)
- T/C [10]: 63 % of control
- T/C (dose: 300.0 mg/kg/injection, schedule: Q04DX004 (sc), vehicle: saline): 55 % of control
- T/C (dose: 600.0 mg/kg/injection, schedule: Q04DX004 (sc), vehicle: saline): 43 % of control

SMILES: CS(C)=O
- T/C (dose: 750.0 mg/kg/injection, schedule: Q01DX010 (sc), vehicle: saline): 36 % of control
- T/C (dose: 1500.0 mg/kg/injection, schedule: Q01DX010 (sc), vehicle: saline): 31 % of control
- T/C (dose: 3000.0 mg/kg/injection, schedule: Q01DX010 (sc), vehicle: saline): 89 % of control
- T/C (dose: 6000.0 mg/kg/injection, schedule: Q01DX010 (sc), vehicle: saline): 75 % of control

SMILES: c1cc(-c2cc3ccc(C4=NCCN4)cc3[nH]2)ccc1C1=NCCN1
- T/C (dose: 25.0 mg/kg/injection, schedule: Q04DX004 (sc), vehicle: saline): 84 % of control
- T/C (dose: 50.0 mg/kg/injection, schedule: Q04DX004 (sc), vehicle: saline): 154 % of control
- T/C (dose: 100.0 mg/kg/injection, schedule: Q04DX004 (sc), vehicle: saline): 124 % of control

SMILES: CC1(C)OCC(CO)(Nc2nc(N3CC3)nc(N3CC3)n2)CO1
- T/C (dose: 2.0 mg/kg/injection, schedule: Q04DX004 (sc), vehicle: saline): 76 % of control

SMILES: CC1(C)OC(=O)N(CO)C1=O
- T/C [11]: 95 % of control
- T/C [12]: 118 % of control
- T/C (dose: 200.0 mg/kg/injection, schedule: Q01DX010 (sc), vehicle: saline): 194 % of control

SMILES: CS(=O)(=O)OCCN(CCOS(C)(=O)=O)c1ccc(C=O)cc1
- T/C (dose: 12.5 mg/kg/injection, schedule: Q01DX010 (sc), vehicle: saline): 100 % of control
- T/C [11]: 90 % of control
- T/C [12]: 37 % of control
